Source: patent US11000033B2, “Ketone or oxime compound, and herbicide” (NISSAN CHEMICAL CORPORATION, priority 2014, dated 2021)

Experiments:
Format in all cases: in vivo
Monochoria vaginalis = assay: Test Example 1: herbicidal activity, application before weed generation in submerged conditions (symbol C); details: application herbicide amount 320 g/ha
In short: (§1)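 Mixed weed seeds sown in alluvial soil under 4 cm of water, with rice seedlings at the 2.5-leaf stage added. Same-day treatment: emulsion diluted to a set herbicide amount onto the water. Three weeks at 25–30 °C, then graded on a six-step scale.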

Stellaria media = assay: Test Example 4: herbicidal effect by soil treatment (symbol P); details: for P: Stellaria media, herbicidal effect grade: 320 g/ha
In short: (§2)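 Seeds were sown in sterilized diluvial soil, covered with about 1.5 cm of soil, and the soil surface was sprayed with a water-diluted emulsion of the compound at a predetermined rate. Plants grew in a greenhouse at 25° C. to 30° C.; effects were scored visually 3 weeks after application.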

[1] = system: Echinochloa crus-galli var. crus-galli; assay: Test Example 4: herbicidal effect by soil treatment (symbol H); details: for H: Echinochloa crus-galli var. crus-galli, herbicidal effect grade: 320 g/ha
In short: as §2

beet = assay: Test Example 5: effect on crop by foliage application, plastic box (symbol f); details: 320 g/ha, 3 weeks after application
In short: (§3)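 Crop seed is sown alongside grass and broadleaf weed species in spots in sterilized diluvial soil, then covered to a depth of about 1.5 cm. Plants grow in a greenhouse kept at 25° C. to 30° C.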

Amaranthus retroflexus [2] = assay: Test Example 4: herbicidal effect by soil treatment (symbol N); details: for N: Amaranthus retroflexus, herbicidal effect grade: 320 g/ha
In short: as §2

Amaranthus retroflexus [3] = assay: Test Example 5: herbicidal effect by foliage application, plastic box (symbol N); details: 320 g/ha, 3 weeks after application
In short: (§4)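 Greenhouse foliar test: seedlings at 14 days, grown 25° C. to 30° C. in sterilized diluvial soil; compound applied as an aqueous dilution of an emulsion; response read 3 weeks after spraying.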

corn = assay: Test Example 4: effect on crop by soil treatment (symbol c); details: for c: corn, effect grade on crop: 320 g/ha
In short: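 Soil-treatment setup: crop and weed seeds were spot-sown into sterilized diluvial soil, then buried beneath approximately 1.5 cm of it, and the boxes were housed in a 25–30° C. greenhouse.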

[4] = system: Echinochloa oryzacola Vasing.; assay: Test Example 1: herbicidal activity, application before weed generation in submerged conditions (symbol A); details: application herbicide amount 320 g/ha
In short: as §1

rice = assay: Test Example 4: effect on crop by soil treatment (symbol b); details: for b: directly sowed rice plant, effect grade on crop: 320 g/ha
In short: (§5)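 Sterilized diluvial soil, spot sowing, ~1.5 cm soil cover; greenhouse 25–30° C.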

rapeseed [5] = assay: Test Example 4: effect on crop by soil treatment (symbol g); details: for g: rapeseed, effect grade on crop: 320 g/ha
In short: as §5

rapeseed [6] = assay: Test Example 5: effect on crop by foliage application, plastic box (symbol g); details: 320 g/ha, 3 weeks after application
In short: as §3

Setaria viridis = assay: Test Example 5: herbicidal effect by foliage application, plastic box (symbol G); details: 320 g/ha, 3 weeks after application
In short: as §4

[7] = system: Echinochloa crus-galli var. crus-galli; assay: Test Example 5: herbicidal effect by foliage application, plastic box (symbol H); details: 320 g/ha, 3 weeks after application
In short: as §4

[8] = system: directly sowed rice plant; assay: Test Example 3: effect on crop by foliage application, Wagner pot (symbol b); details: application herbicide amount 320 g/ha
In short: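 Alluvial soil in a 1/10000-are Wagner pot was flooded to a water depth of 0.1–0.5 cm. Echinochloa crus-galli var. crus-galli, Leptochloa chinensis, Cyperus difformis and rice were sown into it and grown in a greenhouse at 25–30 °C.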

Scirpus juncoides = assay: Test Example 1: herbicidal activity, application before weed generation in submerged conditions (symbol B); details: application herbicide amount 320 g/ha
In short: as §1

[9] = application herbicide amount 320 g/ha

Structure (SMILES)	Herbicidal effect grade, C: Monochoria vaginalis (Monochoria vaginalis)	P: Stellaria media, herbicidal effect grade (Stellaria media)	H: Echinochloa crus-galli var. crus-galli, herbicidal effect grade [1]	N: Amaranthus retroflexus, herbicidal effect grade (Amaranthus retroflexus [2])	c: corn, effect grade on crop (corn)	Herbicidal effect grade, A: Echinochloa oryzacola Vasing. [4]	b: directly sowed rice plant, effect grade on crop (rice)	g: rapeseed, effect grade on crop (rapeseed [5])	g: rapeseed, effect on crop (criteria 0-5) (rapeseed [6])	G: Setaria viridis, herbicidal effect (criteria 0-5) (Setaria viridis)	H: Echinochloa crus-galli var. crus-galli, herbicidal effect (criteria 0-5) [7]	Herbicidal effect grade, B: Scirpus juncoides (Scirpus juncoides)	f: beet, effect on crop (criteria 0-5) (beet)	N: Amaranthus retroflexus, herbicidal effect (criteria 0-5) (Amaranthus retroflexus [3])	effect on crop b (directly sowed rice plant), grade 0-5 [8]	also measured
CON=C(CC1CC(O)=C(c2c(C)cc(-c3ccccc3)cc2C)C1=O)C1CC1 (mixture of isomers) [9-028]																C (Monochoria vaginalis) herbicidal effect grade (Monochoria vaginalis): 5 (Herbicidal ratio of 90% or more (almost completely withered)); Herbicidal effect grade, P: Stellaria media (Stellaria media; [9]): 0 (Herbicidal ratio of 5% or lower (almost no effect)); Herbicidal effect grade, H: Echinochloa crus-galli var. crus-galli [1, 9]: 5 (Herbicidal ratio of 90% or more (almost completely withered)); f: beet, effect on crop grade (beet): 3 (Herbicidal ratio of 40% or higher and lower than 70%); Herbicidal effect grade, N: Amaranthus retroflexus (Amaranthus retroflexus [2]; [9]): 0 (Herbicidal ratio of 5% or lower (almost no effect)); N: Amaranthus retroflexus, herbicidal effect grade (Amaranthus retroflexus [3]): 1 (Herbicidal ratio of 5% or higher and lower than 20%); Effect on crop grade, c: corn (corn; [9]): 1 (Herbicidal ratio of 5% or higher and lower than 20%); A (Echinochloa oryzacola Vasing.) herbicidal effect grade [4]: 5 (Herbicidal ratio of 90% or more (almost completely withered)); Effect on crop grade, b: directly sowed rice plant (rice; [9]): 3 (Herbicidal ratio of 40% or higher and lower than 70%); Effect on crop grade, g: rapeseed (rapeseed [5]; [9]): 4 (Herbicidal ratio of 70% or higher and lower than 90%); g: rapeseed, effect on crop grade (rapeseed [6]): 4 (Herbicidal ratio of 70% or higher and lower than 90%); G: Setaria viridis, herbicidal effect grade (Setaria viridis): 5 (Herbicidal ratio of 90% or more (almost completely withered)); H: Echinochloa crus-galli var. crus-galli, herbicidal effect grade [7]: 5 (Herbicidal ratio of 90% or more (almost completely withered)); b (directly sowed rice plant) effect on crop grade ([8]; Table 24): 5 (Herbicidal ratio of 90% or more (almost completely withered)); B (Scirpus juncoides) herbicidal effect grade (Scirpus juncoides): 5 (Herbicidal ratio of 90% or more (almost completely withered))
CON=C(CC1CC(O)=C(c2c(C)cc(C)cc2C)C1=O)C(F)(F)F (stereo not shown) [1-097]	0 (Herbicidal ratio of 5% or lower (almost no effect))	0 (Herbicidal ratio of 5% or lower (almost no effect))	2 (Herbicidal ratio of 20% or higher and lower than 40%)	0 (Herbicidal ratio of 5% or lower (almost no effect))	1 (Herbicidal ratio of 5% or higher and lower than 20%)	3 (Herbicidal ratio of 40% or higher and lower than 70%)	2 (Herbicidal ratio of 20% or higher and lower than 40%)	3 (Herbicidal ratio of 40% or higher and lower than 70%)	3 (Herbicidal ratio of 40% or higher and lower than 70%)	5 (Herbicidal ratio of 90% or more (almost completely withered))	5 (Herbicidal ratio of 90% or more (almost completely withered))	0 (Herbicidal ratio of 5% or lower (almost no effect))				
CC(CC1CC(O)=C(c2c(C)cc(C)cc2C)C1=O)=NOCc1ccccc1Cl (stereo not shown) [1-113]	4 (Herbicidal ratio of 70% or higher and lower than 90%)	0 (Herbicidal ratio of 5% or lower (almost no effect))	0 (Herbicidal ratio of 5% or lower (almost no effect))	0 (Herbicidal ratio of 5% or lower (almost no effect))	0 (Herbicidal ratio of 5% or lower (almost no effect))	5 (Herbicidal ratio of 90% or more (almost completely withered))	2 (Herbicidal ratio of 20% or higher and lower than 40%)	0 (Herbicidal ratio of 5% or lower (almost no effect))	5 (Herbicidal ratio of 90% or more (almost completely withered))	4 (Herbicidal ratio of 70% or higher and lower than 90%)	4 (Herbicidal ratio of 70% or higher and lower than 90%)	4 (Herbicidal ratio of 70% or higher and lower than 90%)	0 (Herbicidal ratio of 5% or lower (almost no effect))	0 (Herbicidal ratio of 5% or lower (almost no effect))		
CC(CC1CC(O)=C(c2c(C)cc(C)cc2C)C1=O)=NOCC(C)Br (stereo not shown) [1-135]	1 (Herbicidal ratio of 5% or higher and lower than 20%)	0 (Herbicidal ratio of 5% or lower (almost no effect))	5 (Herbicidal ratio of 90% or more (almost completely withered))	0 (Herbicidal ratio of 5% or lower (almost no effect))	0 (Herbicidal ratio of 5% or lower (almost no effect))	5 (Herbicidal ratio of 90% or more (almost completely withered))	5 (Herbicidal ratio of 90% or more (almost completely withered))	2 (Herbicidal ratio of 20% or higher and lower than 40%)	4 (Herbicidal ratio of 70% or higher and lower than 90%)	5 (Herbicidal ratio of 90% or more (almost completely withered))	5 (Herbicidal ratio of 90% or more (almost completely withered))	5 (Herbicidal ratio of 90% or more (almost completely withered))	0 (Herbicidal ratio of 5% or lower (almost no effect))	0 (Herbicidal ratio of 5% or lower (almost no effect))	5 (Herbicidal ratio of 90% or more (almost completely withered))	
CC(CC1CC(O)=C(c2c(C)cc(C)cc2C)C1=O)=NOCc1ccc(F)cc1 (stereo not shown) [1-136]	5 (Herbicidal ratio of 90% or more (almost completely withered))	0 (Herbicidal ratio of 5% or lower (almost no effect))	5 (Herbicidal ratio of 90% or more (almost completely withered))	0 (Herbicidal ratio of 5% or lower (almost no effect))	0 (Herbicidal ratio of 5% or lower (almost no effect))	5 (Herbicidal ratio of 90% or more (almost completely withered))	2 (Herbicidal ratio of 20% or higher and lower than 40%)	3 (Herbicidal ratio of 40% or higher and lower than 70%)	4 (Herbicidal ratio of 70% or higher and lower than 90%)	5 (Herbicidal ratio of 90% or more (almost completely withered))	5 (Herbicidal ratio of 90% or more (almost completely withered))	5 (Herbicidal ratio of 90% or more (almost completely withered))	0 (Herbicidal ratio of 5% or lower (almost no effect))		5 (Herbicidal ratio of 90% or more (almost completely withered))	
